Test results as given in patent US10428030B2, “Heterocycle derivatives and their use for the treatment of CNS disorders” (Trillium Therapeutics Inc., priority 2015, dated 2019).

What was measured:
[1] = system: mouse; conditions: literature report; cited from earlier work
[2] = system: mouse; conditions: literature report; cited from earlier work; remark: listed apart in the source
[3] = system: Frings audiogenic seizure-susceptible mice; assay: Frings audiogenic seizure (AGS)-susceptible mouse model; type: in vivo; conditions: Mus musculus, ip, sound-induced seizures
From the text: Frings audiogenic seizure (AGS)-susceptible mice model examines the ability of an investigational drug to alter the onset and/or severity of seizures in a genetic mouse model of seizure susceptibility. Mice are genetically susceptible to sound-induced reflex seizures. Their seizure phenotype is characterized by wild running, loss of righting reflex, tonic flexion, and tonic extension in response to high-intensity sound stimulation. […] For example, the prototypical anticonvulsants phenytoin and ethosuximide display widely divergent clinical spectrums in humans, but are both active against sound-induced seizures in mice. Yet, the preclinical utility of this animal model rests in the useful information that can be obtained within a genetically susceptible model of seizures. Further, efficacy in this model provides proof of concept of brain bioavailability following systemic administration. The Frings AGS-susceptible mouse has a well-validated epilepsy phenotype that makes it particularly useful as a screening model. Beginning at about 21 days of age, Frings AGS-susceptible mice display prominent seizure activity in response to a high-intensity sound stimulus. They then remain susceptible to sound throughout their life. This is in stark contrast to the DBA2J AGS-susceptible mouse, which is the other common model of sound-induced seizures, as DBA2J mice are only susceptible to sound-induced seizures during a narrow developmental window (post-natal days 18-30). Thus, the Frings AGS-susceptible mouse seizures respond to a wide range of CNS-active drugs and display sound-induced seizures throughout their lifetime. In this regard, Frings AGS-susceptible mice are a highly useful screening model for the identification and characterization of compounds potentially effective against inherited epilepsy.
Male and female Frings audiogenic seizure-susceptible mice (18-25 g) are maintained in an in-house colony at the University of Utah. For each screening test, groups of 8 mice each are treated i.p. with varying doses of the investigational compound. At the time of peak effect as determined in the MES test (Test 4 in CF1 mice), individual mice are placed in a round plexiglass jar (diameter, 15 cm, height, 18 cm) and exposed to a sound stimulus of 110 decibels (11 KHz) delivered for 20 sec. Mice are observed for 25 sec for the presence or absence of hind limb tonic extension. Mice not displaying hind limb tonic extension are considered protected. The severity of a seizure may also be quantitated by assigning a numerical score to the observed response, e.g. no response—0; wild running for <10 sec—1; wild running for >10 sec—2; clonic seizure—3; forelimb extension/hind limb flexion—4; tonic seizure—5.

[4] = system: Male Sprague-Dawley rats; assay: Maximal Electroshock Seizure (MES) rat model; type: in vivo; conditions: po, 4 hours
Method: (§1) Male, Sprague-Dawley rats and CD-1 mice were used for all studies. All animals were allowed ad-lib access to food and water except during experiment. Animals were housed within an animal vivarium maintained under a 12 h light:dark cycle (lights on: 07:00 h), and all experiments were conducted in the animals light phase. For all experiments, animals were habituated to the vivarium for a minimum of 72 h before experimentation. The experimental procedures used in the present investigation were conducted under the Association for Assessment and Accreditation of Laboratory Animal Care (AAALAC) and the Canadian Council on Animal Care (CCAC) guidelines.
(§2) All compounds were sonicated in 5% Tween 80® in saline or methylcellulose 0.5% (wgt/vol), using MC and sterile water and injected in a dose volume of 5 ml/kg or 10 ml/kg (rat), and 10 ml/kg (mouse). Drugs were administered by either the oral, intraperitoneal or intravenous route.
Male Sprague-Dawley rats of body weight 80-100 g were used for these studies. Each experiment was conducted over 3 consecutive days. On day 1 and 2, each rat received a single electrical stimulus (150 mA, 0.2 s duration, 60 Hz) via corneal electrodes moistened with saline (Shock stimulator type 221: Harvard apparatus). […] Typically this reflected approximately 70-90% of the initial group.
(§3) On the test day following a defined drug pretreatment period, rats received a maximal electroshock (150 mA, 0.2 s duration, 60 Hz) via corneal electrodes. Protection was defined as absence of a full tonic seizure within 10 s of stimulus delivery. Twenty minutes before the MES procedure, the animals were tested on a fixed speed rotorod (best score from 3 trials at 8 r.p.m, trial duration=60 s) to give an early assessment of drug effect on gross motor function.

[5] = system: CD-1 mice; assay: s.c Pentylenetetrazole (PTZ) mouse model; type: in vivo; conditions: ip, PTZ 85 mg/kg s.c.
Method: as §1, §2
Sixty minutes following drug or vehicle pretreatment, all mice received a single subcutaneous injection of pentylenetetrazol (PTZ; 85 mg/kg). The animals were then transferred to single observation cages (dimension: 11.5″×7.5″×5″) and observed continuously for 30 min. […] In the event of a seizure, the onset latency from PTZ injection was recorded.

[6] = system: Frings audiogenic seizure-susceptible mice; conditions: general statement on prototypical anticonvulsants; cited from earlier work
[7] = Fixed speed rotorod, gross motor function (rat); conditions: male, Sprague-Dawley, in vivo, po
Method: as §3

[8] = system: MTLE mice; assay: Model of mesial temporal lobe epilepsy (mTLE), hippocampal paroxysmal discharges; type: in vivo, mouse; conditions: after 600 mg/kg, mice 4 weeks after intra-hippocampal KA
From the text: The MTLE mouse model recapitulates many of the characteristics observed in human patients with temporal lobe epilepsy (TLE). The MTLE mouse is characterized by an initial neurotoxic event, a unilateral intrahippocampal injection of kainic acid (KA) into the dorsal hippocampus, which induces non-convulsive SE lasting several hours. This initial event is followed by a latent phase. Two to three weeks after KA injection, spontaneous recurrent hippocampal paroxysmal discharges (HPD) are only recorded in the epileptic hippocampus and remain stable and stereotyped for the whole life of the animal. These HPDs occur spontaneously about 30-60 times per hour when the animals are in a state of quiet wakefulness, generally last 15-20 sec and are associated with behavioral arrest and/or mild motor automatisms. Adult, male […] mice are stereotaxically injected with kainate (1 nmol in 100 nL) and implanted with 1 bipolar electrode in the dorsal hippocampus, and then allowed to recover for four weeks prior to evaluation in the screening protocol. Using a group size of 4 MTLE mice per dose of investigational compound, the compounds are typically first tested using the 6 Hz 44 mA ED50 value. […] For all acute studies, drug conditions are counter-balanced in MTLE mice over a two week period using a Latin square dosing protocol. Animals are used as their own controls. Digital EEG recordings are performed on freely moving animals for 20 minutes pre-injection (reference period) and 90 minutes post-injection. Data are analyzed for the period of 10 minutes before and 10 minutes after peak time of effect of the investigational compound, as determined from the 6 Hz 44 mA seizure test. The effects of the injected compound are compared to the reference period. Any accompanying effect on animal behavior is noted. Data are presented as the raw number of HPDs during the analyzed 20 min period (10 minutes before and 10 minutes after peak time of effect of compound) for each MTLE mouse, group mean number of HPDs, and effect on suppression as represented by percent of baseline HPD values.

SMILES: O=C1CCc2cc(OCc3ccccc3)ccc2N1
- activity in mouse electroshock seizure (MES) model [1]: active
- activity in pentylenetetrazole (PTZ) model [2]: active

SMILES: NC(=O)N1c2ccccc2C=Cc2ccccc21 [Carbamazepine]
- ED50 [3]: 11.2 mg/kg

SMILES: O=C1COc2cc(OCc3ccccc3)ccc2N1 [Compound 1, 7-Benzyloxy-4H benzo[1,4]oxazin-3-one, reference compound]
- ED50 [4]: > 300 mg/kg
- ED50 [5]: > 300 mg/kg

SMILES: CCC1(C)CC(=O)NC1=O (centres unmarked) [Ethosuximide]
- ED50 [3]: 328 mg/kg
- activity against sound-induced seizures in mice [6]: active

SMILES: NC(=O)OCC(COC(N)=O)c1ccccc1 [Felbamate]
- ED50 [3]: 10 mg/kg

SMILES: NCC1(CC(=O)O)CCCCC1 [Gabapentin]
- ED50 [3]: 91.1 mg/kg

SMILES: O=C1Nc2ccc(OCc3ccccc3)cc2OC1(F)F [I(D), 7-Benzyloxy-2,2-difluoro-4H-benzo[1,4]oxazin-3-one]
- ED50 [4]: 30.5 ± 0.8 mg/kg
- ED50 at 4 hours [7]: > 120 mg/kg

SMILES: Nc1nnc(-c2cccc(Cl)c2Cl)c(N)n1 [Lamotrigine]
- ED50 [3]: 2.39 mg/kg

SMILES: CC[C@@H](C(N)=O)N1CCCC1=O [Levetiracetam, reference compound]
- Effect (% baseline) ([8]; HPD): 68.7 % baseline
- Mean HPD Counts [8]: 14.3

SMILES: O=C1NC(=O)C(c2ccccc2)(c2ccccc2)N1 [Phenytoin]
- ED50 [3]: 3.8 mg/kg
- activity against sound-induced seizures in mice [6]: active

SMILES: CCCC(CCC)C(=O)O [Valproic Acid]
- ED50 [3]: 155 mg/kg
